Where two headings read alike, the source gives them in different places.
Legend:
[1] = test system: OSC-3 cells; test: Cell viability assay (CellTiter-Glo), OSC-3; type: cell-based; conditions: for IC50: read-out: IC50 cytotoxicity; for anticancer effect: OSC-3, with light, 0.3 μM to 1 μM
Description: OSC-3, BXPC-3, AsPC-1, PANC-1, UM-UC-3, 5637, or IMR90 cells were seeded in 96-well plates at a density of 5×10^3 cells per well and were grown overnight. Cells were incubated with various concentrations of drugs for 24 h, followed washing with PBS three times, and adding 100 μL fresh medium. For light-treated groups, cells were irradiated for 30 s using a 633-nm LED array (Omnilux new-U) at a power density of 30 mW cm^−2 at room temperature and then were cultured for another 24 h in parallel with non-light treated groups. Cell viability was quantified using the CellTiter-Glo assay (Promega, USA).

[2] = test system: OSC-3 cells; test: Cell TEM study of mitochondria morphology; type: cell-based; conditions: 0.5 μM, 24 h
[3] = test system: OSC-3 cells; test: Mitochondrial membrane potential assay (JC-1); type: cell-based; conditions: 1 μM, with light
Description: The mitochondrial membrane potential was determined using the dye JC-1 as a probe (Thermo Fisher Scientific, USA). Briefly, OSC-3 cells (2×10^4 cells per well) were treated with drugs (1 μM) for 24 h. […] JC-1 (5 μg mL^−1) was added to incubate for 20 min. Cell imaging was performed on a CLSM (Carl Zeiss, Germany). The ratio of red/green fluorescence intensity was calculated by ImageJ software.

[4] = test system: subcutaneous OSC-3 tumor; test: In vivo anticancer study, subcutaneous oral cancer model; design: species or system nude mice; conditions: for H&E staining of tumors: 24 h drug, then laser; for antitumor effect: with laser; for antitumor efficacy: without laser
Description: (§1) Female athymic nude mice, 6-week-old, were purchased from Envigo (Indianapolis, IN, USA). All animal experiments were strictly performed in compliance with the protocol (#20265) approved by the Institutional Animal Care and Use Committee at the University of California, Davis. The subcutaneous and orthotopic tumor models were established by inoculated OSC-3 cells into both flanks (5×10^6 cells per tumor) or lower lips (1×10^6 cells per tumor) of nude mice. When the subcutaneous tumors reached about 80 mm^3 and orthotopic tumors reached about 50 mm^3, the mice started to be treated as indicated.
Laser (680 nm) treatment was conduct by a laser device within an energy of 0.2 W cm^−2 for 6 min (Shanghai Xilong Optoelectronics Technology, China). […] The drug was intratumorally injected into mice at a dose of 1 mM (10 nmol per 50 mm^3 tumor). Laser treatment was performed for a total of four times, one each on days 1, 2, 5, and 6 post-injection of drugs. The relative tumor value and body weight were recorded every two days. In subcutaneous models, the tumors in the right flank of mice were subjected to laser treatment, while the left tumors were not. In orthotopic models, all tumors were treated with the laser treatment. The temperature of tumor surface was monitored using a thermal camera (FLIR Systems, USA) immediately after laser treatment. ROS production in the tumor after light treatment was also measured using DCF-DA as an indicator. Briefly, the tumor was treated with different drugs via intratumoral injection at first. Then, the mice with tumors were treated with the laser at 1st, 2nd, 5th, and 6th day independently. After each light treatment, the mice were sacrificed immediately, and the obtained tumors were cut into small pieces and immersed in the DCF-DA solutions for 10 min. Finally, the tumors pieces were imaged by the ChemiDoc™ MP imaging system with the FITC channel. The fluorescence intensity of DCF-DA was quantified by Image J software. Mice were sacrificed after the first light treatment to obtain tumor and organs tissue for TEM, H&E, and IHC evaluation.

[5] = test system: OSC-3 tumors; test: Intratumoral ROS production (DCF-DA, ex vivo imaging); type: in vivo, nude mice; conditions: laser at days 1, 2, 5, 6 post-injection
Description: Laser (680 nm) treatment was conduct by a laser device within an energy of 0.2 W cm^−2 for 6 min (Shanghai Xilong Optoelectronics Technology, China). Mice bearing subcutaneous and orthotopic tumors were randomly divided into four groups (n=6): Vehicle (PBS), DQA, PA, and PQC NFs. The drug was intratumorally injected into mice at a dose of 1 mM (10 nmol per 50 mm^3 tumor). Laser treatment was performed for a total of four times, one each on days 1, 2, 5, and 6 post-injection of drugs. The relative tumor value and body weight were recorded every two days. In subcutaneous models, the tumors in the right flank of mice were subjected to laser treatment, while the left tumors were not. In orthotopic models, all tumors were treated with the laser treatment. The temperature of tumor surface was monitored using a thermal camera (FLIR Systems, USA) immediately after laser treatment. ROS production in the tumor after light treatment was also measured using DCF-DA as an indicator. Briefly, the tumor was treated with different drugs via intratumoral injection at first. Then, the mice with tumors were treated with the laser at 1st, 2nd, 5th, and 6th day independently. […] The fluorescence intensity of DCF-DA was quantified by Image J software. […]

[6] = Characterization of PQC NFs (TEM, DLS); type: physicochemical
Description: Preparation and Characterization of PQC NFs: Briefly, PQC monomers in ethanol were added dropwise into deionized water under stirring. Ethanol in the solution was removed by vacuum rotary evaporation at 37° C. and the self-assembling PQC NFs were formed spontaneously. The aqueous nanofiber solution (0.02 mg mL^−1) was deposited on copper grids to prepare samples for transmission electron microscope (TEM). The morphology was observed by a Talos L120C TEM (Thermo Fisher Scientific, USA). The UV-Vis and fluorescence spectra were measured by a UV-Vis spectrometer (UV-1800, Shimadzu, Japan) and a fluorescence spectrometer (RF-6000, Shimadzu, Japan), respectively. NIR fluorescence imaging studies was performed by a ChemiDoc™ MP imaging system (Bio-Rad, USA). The ^1O2 production was detected using SOSG (Thermo Fisher Scientific, USA) as an indicator. Briefly, SOSG solution was added into drug solutions in 96 wells plate. […] Fluorescence intensity was determined by a microplate reader (Tecan, Switzerland). The ultrafiltration experiment of PQC NFs were conducted using a centrifuge (10k rpm, 10 min) and a centrifuge tube (10 kDa, Beckman Coulter, USA).

[7] = test system: subcutaneous OSC-3 tumor; test: In vivo fluorescence imaging, tumor retention; design: species or system nude mice; conditions: intratumoral injection, 10 nmol per 50 mm^3
Description: as §1
The subcutaneous tumor model was used in fluorescence imaging study in vivo of PA and PQC NFs. PA and PQC NFs (10 nmol per 50 mm^3 tumor) were administered by intratumoral injection. Fluorescence imaging were performed on a ChemiDoc™ MP imaging system (Bio-Rad, USA) at different time points post-injection.

[8] = test system: OSC-3 cells; test: Colocalization assay (MitoTracker, LysoTracker, CLSM); type: cell-based; conditions: 2 μM, 4 h
Description: OSC-3 cells were treated with PQC NFs (2 μM) for various times (from 5 min to 8 h) or with PA (2 μM) for 4 h, followed by incubation with LysoTracker Green (Thermo Fisher Scientific, USA) and MitoTracker Red (Cell Signaling Technology, USA) for 30 min. Cells were visualized on confocal laser scanning microscopy (CLSM) (Carl Zeiss, Germany) immediately to investigate the subcellular localization. Signals of PQC NPs and PA were observed on the Cy5 channel. LysoTracker and MitoTracker were observed according the manufacturer's instructions. The corresponding Pearson correlation coefficient was calculated by ImageJ software.

[9] = test system: OSC-3 cells; test: Apoptosis assay (Annexin V-APC/PI); type: cell-based
Description: Apoptosis assay was performed with the Annexin V-APC/propidium iodide (PI) apoptosis kit (Biolegend, USA). […] […] Cells were stained with the apoptosis kit according to the manufacturer's instructions. All samples of cells were collected for flow cytometry using a BD FACSCanto flow cytometer (BD, USA). Data analysis was accomplished using FlowJo software.

[10] = test system: Pancreatic cancer stem cells; test: Sphere formation; type: cell-based; conditions: 5 μM, 10 days
Description: Pancreatic cancer stem cells (3000 cells per well) were mixed with matrigel and medium, and then placed in 24-well plates with pre-embedded matrigel and medium. After 24 h incubation, CSC cells were then treated with different agents as indicated and cultured for 10 days. The cells were imaged as shown in FIG. 33A and the sphere diameters were calculated by ImageJ and are plotted in FIG. 33B.

[11] = test system: Pancreatic cancer stem cells (CSC); test: Cell viability assay, pancreatic cancer stem cells; type: cell-based
Description: Cell viability assay. Pancreatic cancer stem cells (CSC, 5×10^3 cells per well) was plated in 96-well plates, incubated overnight, and then were treated with different concentrations of agents as indicated. After 72 h treatment, cell viability was quantified using the CellTiter-Glo assay Cell viability curves and the chemical structures of LM, LND, and m104 are shown in FIG. 31A and FIG. 31B.

[12] = test system: CSC cells; test: Mitochondria membrane potential (JC-1), CSC; type: cell-based; conditions: 24 h
Description: Mitochondria membrane potential. JC-1 dye was used as an indicator of mitochondrial membrane potential. Briefly, Cells (2×10^4 cells per well) were treated as indicated for 24 h, washed and cultured with fresh medium. Then 0.5 μg/mL JC-1 was added for another 30 min incubation. Images were captured by CLSM.

[13] = test system: Bxpc-3 and AsPc cells; test: Cell viability, Bxpc-3 and AsPc; type: cell-based; conditions: 72 h treatment
Description: Cell viability. Bxpc-3 and AsPc cells (CSC, 5×10^3 cells per well) was plated in 96-well plates, incubated overnight, and then were treated with different concentrations of agents as indicated. After 72 h treatment, cell viability was quantified using the CellTiter-Glo assay.

[14] = test system: CSC cells; test: Seahorse assay (oxygen consumption rate); type: cell-based; conditions: 24 h
Description: Seahorse assay. CSC cells (2×10^4 cells per well) were treated as indicated for 24 h. The Oxygen Consumption Rate (OCR) were measured by the Agilent Seahorse XF analyzer.

[15] = test system: CSC spheres (with Stella cell); test: Sphere growth, CSC spheres with Stella cell; type: cell-based; conditions: 5 μM
Description: Sphere growth. […] CSC cells (800 cells per well) and stella cells (400 cells per well) were plated together in 96-well low-attachment plates and incubated overnight. CSC spheres then were treated with different agents as indicated. Spheres growth was monitored by CLSM (every two days).

[16] = test system: Pancreatic cancer stem cells; test: Cell growth assay; type: cell-based; conditions: 2 μM
Description: Cell growth. Pancreatic cancer stem cells were plated in 6-well plates (50,000 cell per well) and treated as indicated and were counted manually every 24 h. The cell growth is plotted over time in FIG. 31C.

| Compound | anticancer effect [1] | morphological changes in mitochondria (TEM) ([2]; with light) | mitochondrial membrane potential change (JC-1) [3] | H&E staining of tumors [4] | antitumor effect [4] | antitumor efficacy [4] | tumorsphere formation [10] | oxygen consumption rate (Mito stress test) [14] | CSC tumorsphere (with Stella cell) growth [15] | also measured |
| --- | --- | --- | --- | --- | --- | --- | --- | --- | --- | --- |
| Cc1cc(N)c2ccccc2[n+]1CCCCCCCCCC[n+]1c(C)cc(N)c2ccccc21 [DQA, dequalinium] | did not show obvious anticancer effects | morphologically changed mitochondria with and without light treatment | not effective enough to cause a signal change | no significant cell death | did not show an obvious antitumor effect | did not show significant antitumor efficacy | – | – | – | IC50 ([1]; OSC-3, absence of light, 24 h + 24 h): 3000 nM |
| pheophorbide a [PA] | did not show obvious anticancer effects | only caused some mitochondrial swelling | not effective enough to cause a signal change | only a small portion of tumor tissue showed apoptosis/necrosis | effectively inhibited tumor growth but did not shrink the tumors | did not show significant antitumor efficacy | – | – | – | ROS levels in tumors [5]: high at 24 h post-injection and decreased quickly at later time points; cytotoxicity ([1]; OSC-3, absence of light): did not show cytotoxicity even at 100 uM; IC50 ([1]; OSC-3, light treatment 30 mW cm^-2 for 30 s, 633 nm): 2570 nM; morphological changes in mitochondria (TEM) ([2]; without light): healthy mitochondria; surface charge [6]: −11.5±1.3 mV; fluorescence within tumors over time [7]: nearly undetectable at the 4th day post-injection; subcellular colocalization [8]: low-level colocalization with mitochondria or lysosomes; apoptosis induction ([9]; 0.2 μM, with light): failed to induce apoptosis; Annexin V positive population ([9]; 2 μM, 24 h, light, another 12 h): 19.3% |
| Cc1cc(N)c2ccccc2[n+]1CCCCCCCCCCNC(=O)c1nn(Cc2ccc(Cl)cc2Cl)c2ccccc12 [LM] | – | – | – | – | – | – | blocked tumorsphere formation in CSCs | decrease in basal mitochondrial respiration and spare respiration capacity | inhibits CSC tumorsphere (with Stella cell) growth | IC50 ([11]; 72 h): 460 ± 50 nM; mitochondrial membrane potential (JC-1) [12]: decreased Δψm; potency on other pancreatic tumor cells [13]: more potent than LND, m104, mixture of LND and m104; cell growth [16]: inhibitory effects |
| O=C(O)c1nn(Cc2ccc(Cl)cc2Cl)c2ccccc12 [LND, 1-(2,4-dichlorobenzyl)-1H-indazole-3-carboxylic acid] | – | – | – | – | – | – | limited inhibition | no significant impact on OCRs | no effect | IC50 ([11]; CSC, 72 h treatment, read-out: IC50): 30000 ± 2200 nM |

From patent US20250269031A1, “MITOCHONDRIA TARGETING QUINOLINIUM-DRUG CONJUGATES AND THEIR SELF-ASSEMBLING NANOFORMULATIONS FOR CANCER THERAPY” (THE REGENTS OF THE UNIVERSITY OF CALIFORNIA, priority 2020, published 2025)
